# Tested on: NRF2 (NQO1 activity as marker for NRF2 activation), BEAS-2B cells
# Test: BEAS-2B NQO1 MTT Assay
# Assay type: cell-based
# Conditions: Homo sapiens, EC50 of NQO1 specific activity induction, 48 hours incubation, read-out: EC50
# Summary of the method: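 As a marker of NRF2 activation, NQO1 specific activity was read from the rate of absorbance change at 570 nm in MTT cocktail over 30 minutes. Lysates came from BEAS-2B cells treated for 48 hours at 37° C, and EC50 was derived by 3-parameter fitting.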
row,Compound,EC50 [nM]
1,"CC[C@@H]1CN(Cc2cc([C@@H](c3ccc4c(nnn4CC)c3C)C(C)(C)NC(=O)c3ccno3)ccc2C)S(=O)(=O)c2ccccc2O1 [Example 152, N-((S)-1-(3-(((R)-4-Ethyl-1,1-dioxido-3,4-dihydro-2H-benzo[b][1,4,5]oxathiazepin-2-yl)methyl)-4-methylphenyl)-1-(1-ethyl-4-methyl-1H-benzo[d][1,2,3]triazol-5-yl)-2-methylpropan-2-yl)isoxazole-5-carboxamide]",1 to 10
2,"CC[C@@H]1CN(Cc2cc([C@@H](c3ccc4c(nnn4CC)c3C)C(C)(C)NC(=O)c3ccon3)ccc2C)S(=O)(=O)c2ccccc2O1 [Example 153, N-((S)-1-(3-(((R)-4-Ethyl-1,1-dioxido-3,4-dihydro-2H-benzo[b][1,4,5]oxathiazepin-2-yl)methyl)-4-methylphenyl)-1-(1-ethyl-4-methyl-1H-benzo[d][1,2,3]triazol-5-yl)-2-methylpropan-2-yl)isoxazole-3-carboxamide]",10 to 100
3,"CC[C@@H]1CN(Cc2cc([C@@H](c3ccc4c(nnn4CC)c3C)C(C)(C)NC(=O)c3cncc(F)c3)ccc2C)S(=O)(=O)c2ccccc2O1 [Example 154, N-((S)-1-(3-(((R)-4-Ethyl-1,1-dioxido-3,4-dihydro-2H-benzo[b][1,4,5]oxathiazepin-2-yl)methyl)-4-methylphenyl)-1-(1-ethyl-4-methyl-1H-benzo[d][1,2,3]triazol-5-yl)-2-methylpropan-2-yl)-5-fluoronicotinamide]",10 to 100
4,"CC[C@@H]1CN(Cc2cc([C@@H](c3ccc4c(nnn4CC)c3C)C(C)(C)NC(=O)c3cncc(C(F)(F)F)c3)ccc2C)S(=O)(=O)c2ccccc2O1 [Example 155, N-((S)-1-(3-(((R)-4-Ethyl-1,1-dioxido-3,4-dihydro-2H-benzo[b][1,4,5]oxathiazepin-2-yl)methyl)-4-methylphenyl)-1-(1-ethyl-4-methyl-1H-benzo[d][1,2,3]triazol-5-yl)-2-methylpropan-2-yl)-5-(trifluoromethyl) nicotinamide]",10 to 100
5,"CC[C@@H]1CN(Cc2cc([C@@H](c3ccc4c(nnn4CC)c3C)C(C)(C)NC(=O)c3ccc(=O)[nH]c3)ccc2C)S(=O)(=O)c2ccccc2O1 [Example 156, N-((S)-1-(3-(((R)-4-Ethyl-1,1-dioxido-3,4-dihydro-2H-benzo[b][1,4,5]oxathiazepin-2-yl)methyl)-4-methylphenyl)-1-(1-ethyl-4-methyl-1H-benzo[d][1,2,3]triazol-5-yl)-2-methylpropan-2-yl)-6-oxo-1,6-dihydropyridine-3-carboxamide]",100 to 1000
6,"CC[C@@H]1CN(Cc2cc([C@@H](c3ccc4c(nnn4CC)c3C)C(C)(C)NC(=O)c3cnc(S(C)(=O)=O)nc3)ccc2C)S(=O)(=O)c2ccccc2O1 [Example 157, N—((S)-1-(3-(((R)-4-Ethyl-1,1-dioxido-3,4-dihydro-2H-benzo[b][1,4,5]oxathiazepin-2-yl)methyl)-4-methylphenyl)-1-(1-ethyl-4-methyl-1H-benzo[d][1,2,3]triazol-5-yl)-2-methylpropan-2-yl)-2-(methylsulfonyl)pyrimidine-5-carboxamide]",100 to 1000
7,"CC[C@@H]1CN(Cc2cc([C@@H](c3ccc4c(nnn4CC)c3C)C(C)(C)NC(=O)c3cnc(N4CCC4)nc3)ccc2C)S(=O)(=O)c2ccccc2O1 [Example 158, 2-(Azetidin-1-yl)-N—((S)-1-(3-(((R)-4-ethyl-1,1-dioxido-3,4-dihydro-2H-benzo[b][1,4,5]oxathiazepin-2-yl)methyl)-4-methylphenyl)-1-(1-ethyl-4-methyl-1H-benzo[d][1,2,3]triazol-5-yl)-2-methylpropan-2-yl)pyrimidine-5-carboxamide]",10 to 100
8,"CC[C@@H]1CN(Cc2cc([C@@H](c3ccc4c(nnn4CC)c3C)C(C)(C)NC(=O)c3cnc(N4CCCC4)nc3)ccc2C)S(=O)(=O)c2ccccc2O1 [Example 159, N-((S)-1-(3-(((R)-4-Ethyl-1,1-dioxido-3,4-dihydro-2H-benzo[b][1,4,5]oxathiazepin-2-yl)methyl)-4-methylphenyl)-1-(1-ethyl-4-methyl-1H-benzo[d][1,2,3]triazol-5-yl)-2-methylpropan-2-yl)-2-(pyrrolidin-1-yl)pyrimidine-5-carboxamide]",10 to 100
9,"CC[C@@H]1CN(Cc2cc([C@@H](c3ccc4c(nnn4CC)c3C)C(C)(C)NC(=O)c3cnc(OCCCOC)nc3)ccc2C)S(=O)(=O)c2ccccc2O1 [Example 160, N-((S)-1-(3-(((R)-4-Ethyl-1,1-dioxido-3,4-dihydro-2H-benzo[b][1,4,5]oxathiazepin-2-yl)methyl)-4-methylphenyl)-1-(1-ethyl-4-methyl-1H-benzo[d][1,2,3]triazol-5-yl)-2-methylpropan-2-yl)-2-(3-methoxypropoxy)pyrimidine-5-carboxamide]",1 to 10
10,"CC[C@@H]1CN(Cc2cc([C@@H](c3ccc4c(nnn4CC)c3C)C(C)(C)NC(=O)c3cnc(OCCO)nc3)ccc2C)S(=O)(=O)c2ccccc2O1 [Example 161, N-((S)-1-(3-(((R)-4-Ethyl-1,1-dioxido-3,4-dihydro-2H-benzo[b][1,4,5]oxathiazepin-2-yl)methyl)-4-methylphenyl)-1-(1-ethyl-4-methyl-1H-benzo[d][1,2,3]triazol-5-yl)-2-methylpropan-2-yl)-2-(2-hydroxyethoxy)pyrimidine-5-carboxamide]",10 to 100
11,CC[C@@H]1CN(Cc2cc([C@@H](c3ccc4c(nnn4CC)c3C)C(C)(C)NC(=O)c3cnc(N(C)C)nc3)ccc2C)S(=O)(=O)c2ccccc2O1 [Example 162],10 to 100
12,"CCOCCOc1ncc(C(=O)NC(C)(C)[C@@H](c2ccc(C)c(CN3C[C@@H](CC)Oc4ccccc4S3(=O)=O)c2)c2ccc3c(nnn3CC)c2C)cn1 [Example 163, 2-(2-Ethoxyethoxy)-N-((S)-1-(3-(((R)-4-ethyl-1,1-dioxido-3,4-dihydro-2H-benzo[b][1,4,5]oxathiazepin-2-yl)methyl)-4-methylphenyl)-1-(1-ethyl-4-methyl-1H-benzo[d][1,2,3]triazol-5-yl)-2-methylpropan-2-yl)pyrimidine-5-carboxamide]",1 to 10
13,"CC[C@@H]1CN(Cc2cc([C@@H](c3ccc4c(nnn4CC)c3C)C(C)(C)NC(=O)c3cnc(N4CCOCC4)nc3)ccc2C)S(=O)(=O)c2ccccc2O1 [Example 164, N-((S)-1-(3-(((R)-4-Ethyl-1,1-dioxido-3,4-dihydro-2H-benzo[b][1,4,5]oxathiazepin-2-yl)methyl)-4-methylphenyl)-1-(1-ethyl-4-methyl-1H-benzo[d][1,2,3]triazol-5-yl)-2-methylpropan-2-yl)-2-morpholinopyrimidine-5-carboxamide]",10 to 100
14,"CC[C@@H]1CN(Cc2cc([C@@H](c3ccc4c(nnn4CC)c3C)C(C)(C)NC(=O)c3cnc(N4CCN(C)CC4)nc3)ccc2C)S(=O)(=O)c2ccccc2O1 [Example 165, N-((S)-1-(3-(((R)-4-Ethyl-1,1-dioxido-3,4-dihydro-2H-benzo[b][1,4,5]oxathiazepin-2-yl)methyl)-4-methylphenyl)-1-(1-ethyl-4-methyl-1H-benzo[d][1,2,3]triazol-5-yl)-2-methylpropan-2-yl)-2-(4-methylpiperazin-1-yl)pyrimidine-5-carboxamide]",10 to 100
15,"CC[C@@H]1CN(Cc2cc([C@@H](c3ccc4c(nnn4CC)c3C)C(C)(C)NC(=O)c3cccnc3)ccc2C)S(=O)(=O)c2cccnc2O1 [Example 166, N—((S)-1-(3-(((R)-4-Ethyl-1,1-dioxido-3,4-dihydro-2H-pyrido[2,3-b][1,4,5]oxathiazepin-2-yl)methyl)-4-methylphenyl)-1-(1-ethyl-4-methyl-1H-benzo[d][1,2,3]triazol-5-yl)-2-methylpropan-2-yl)nicotinamide]",1 to 10
16,"CC[C@@H]1CN(Cc2cc([C@@H](c3ccc4c(nnn4CC)c3C)C(C)(C)N(C)C(=O)c3cncnc3)ccc2C)S(=O)(=O)c2ccccc2O1 [Example 167, N—((S)-1-(3-(((R)-4-Ethyl-1,1-dioxido-3,4-dihydro-2H-benzo[b][1,4,5]oxathiazepin-2-yl)methyl)-4-methylphenyl)-1-(1-ethyl-4-methyl-1H-benzo[d][1,2,3]triazol-5-yl)-2-methylpropan-2-yl)-N-methylpyrimidine-5-carboxamide]",10 to 100
17,"CC[C@@H]1CN(Cc2cc([C@H](CC(=O)N(C)c3cccnc3)c3ccc4c(nnn4CC)c3C)ccc2C)S(=O)(=O)c2cccnc2O1 [Example 169, (S)-3-(3-(((R)-4-ethyl-1,1-dioxido-3,4-dihydro-2H-pyrido[2,3-b][1,4,5]oxathiazepin-2-yl)methyl)-4-methylphenyl)-3-(1-ethyl-4-methyl-1H-benzo[d][1,2,3]triazol-5-yl)-N-methyl-N-(pyridin-3-yl)propanamide]",100 to 1000
18,"CC[C@@H]1CN(Cc2cc([C@H](CC(=O)Nc3ccccc3)c3ccc4c(nnn4CC)c3C)ccc2C)S(=O)(=O)c2cccnc2O1 [Example 170, (S)-3-(3-(((R)-4-ethyl-1,1-dioxido-3,4-dihydro-2H-pyrido[2,3-b][1,4,5]oxathiazepin-2-yl)methyl)-4-methylphenyl)-3-(1-ethyl-4-methyl-1H-benzo[d][1,2,3]triazol-5-yl)-N-phenylpropanamide]",100 to 1000
19,"CC[C@@H]1CN(Cc2cc([C@H](CC(=O)NC3CCCC3)c3ccc4c(nnn4CC)c3C)ccc2C)S(=O)(=O)c2cccnc2O1 [Example 171, (S)-N-cyclopentyl-3-(3-(((R)-4-ethyl-1,1-dioxido-3,4-dihydro-2H-pyrido[2,3-b][1,4,5]oxathiazepin-2-yl)methyl)-4-methylphenyl)-3-(1-ethyl-4-methyl-1H-benzo[d][1,2,3]triazol-5-yl)propanamide]",100 to 1000
20,"CC[C@@H]1CN(Cc2cc([C@H](CC(=O)Nc3ccc(OC)nc3)c3ccc4c(nnn4CC)c3C)ccc2C)S(=O)(=O)c2cccnc2O1 [Example 172, (S)-3-(3-(((R)-4-ethyl-1,1-dioxido-3,4-dihydro-2H-pyrido[2,3-b][1,4,5]oxathiazepin-2-yl)methyl)-4-methylphenyl)-3-(1-ethyl-4-methyl-1H-benzo[d][1,2,3]triazol-5-yl)-N-(6-methoxypyridin-3-yl)propanamide]",100 to 1000

# Source: patent US11078216B2, “Bisaryl amides as NRF2 activators” (GLAXOSMITHKLINE INTELLECTUAL PROPERTY DEVELOPMENT LIMITED, priority 2016, dated 2021)
